Holding throughout (assay): relative viability (nuclei count vs DMSO), 5 days (fraction); higher = more cells survive
Compound in the experiment “Veliparib + Palbociclib”: C[C@]1(c2nc3c(C(N)=O)cccc3[nH]2)CCCN1 [Veliparib] + CC(=O)c1c(C)c2cnc(Nc3ccc(N4CCNCC4)cn3)nc2n(C2CCCC2)c1=O [Palbociclib] (partner 0.5 µM)
In a few lines:
(§1)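 Lung cancer cell lines in 1536-well plates were dosed by pin tool the day after seeding, either with one drug alone or with a fixed anchor-drug dose plus five library-drug doses (not always all listed) in √10 steps. After 5 days, cells were fixed and their nuclei stained in one step (final 0.05% Triton X-100, 1% formaldehyde, 1 ug/ml Hoechst), then counted on 4× images. Relative viability is the nuclei count in treated wells divided by that in vehicle wells. Values are medians of duplicate plates.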

Compound in experiment [1]: COC1=CC=C(C=C1)CN2C=CC3=C2C=C(C=C3)C(=O)NO + Cc1cc(Nc2cc(N3CCN(C)CC3)nc(Sc3ccc(NC(=O)C4CC4)cc3)n2)n[nH]1 [Tozasertib] (partner 0.1 µM)
The procedure, abridged: as §1

Compound in the experiment “Veliparib + Olaparib”: C[C@]1(c2nc3c(C(N)=O)cccc3[nH]2)CCCN1 [Veliparib] + O=C(c1cc(Cc2n[nH]c(=O)c3ccccc23)ccc1F)N1CCN(C(=O)C2CC2)CC1 [Olaparib] (partner 8 µM)
The procedure, abridged:
as §1

Compound in the experiment “Veliparib + Dasatinib”: C[C@]1(c2nc3c(C(N)=O)cccc3[nH]2)CCCN1 [Veliparib] + Cc1nc(Nc2ncc(C(=O)Nc3c(C)cccc3Cl)s2)cc(N2CCN(CCO)CC2)n1 [Dasatinib] (partner 0.075 µM)
In a few lines: as §1

Turning to SW 1573, the relative viability with Veliparib + Palbociclib (first compound 0.06325 µM) was determined as 0.337; in the experiment with Veliparib + Palbociclib (first compound 0.2 µM), 0.431; with Veliparib + Palbociclib (first compound 0.6325 µM) it was 0.382; with Veliparib + Palbociclib (first compound 2 µM), 0.445; in experiment [1] (first compound 0.253 µM) it was 0.233; in experiment [1] (first compound 0.8 µM), 0.188. The relative viability was 0.206 in experiment [1] (first compound 2.53 µM); 0.157 in experiment [1] (first compound 8 µM); 0.57 with Veliparib + Olaparib (first compound 0.02 µM); 0.428 in the experiment with Veliparib + Olaparib (first compound 0.06325 µM); 0.464 with Veliparib + Olaparib (first compound 0.2 µM); 0.42 in the experiment with Veliparib + Olaparib (first compound 0.6325 µM). In addition, the relative viability with Veliparib + Olaparib (first compound 2 µM) is 0.442; with Veliparib + Dasatinib (first compound 0.06325 µM), 0.659; with Veliparib + Dasatinib (first compound 0.2 µM) it was 0.38; with Veliparib + Dasatinib (first compound 0.6325 µM), 0.391; with Veliparib + Dasatinib (first compound 2 µM), 0.439.

(Values after the supplement of paper PMC10307832.)
